Measured values taken from article PMC4507179, “Insights into the key interactions between human protein phosphatase 5 and cantharidin using molecular dynamics and site-directed mutagenesis bioassays” (Scientific Reports, 2015).
Positions count from the first letter of the chain named.

Tests used:
[1] = target: T1, recombinant wild-type HuPP5 (Homo sapiens, UniProt P53041); assay: Inhibition of recombinant wild-type HuPP5 phosphatase activity (p-NPP substrate); assay type: biochemical; conditions: mean ± S.D., three independent experiments
T1 construct: 6xHis (N); made in house; host or cells: Escherichia coli BL21(DE3)pLysS, pET43.1b
T1 sequence (P53041 1-499): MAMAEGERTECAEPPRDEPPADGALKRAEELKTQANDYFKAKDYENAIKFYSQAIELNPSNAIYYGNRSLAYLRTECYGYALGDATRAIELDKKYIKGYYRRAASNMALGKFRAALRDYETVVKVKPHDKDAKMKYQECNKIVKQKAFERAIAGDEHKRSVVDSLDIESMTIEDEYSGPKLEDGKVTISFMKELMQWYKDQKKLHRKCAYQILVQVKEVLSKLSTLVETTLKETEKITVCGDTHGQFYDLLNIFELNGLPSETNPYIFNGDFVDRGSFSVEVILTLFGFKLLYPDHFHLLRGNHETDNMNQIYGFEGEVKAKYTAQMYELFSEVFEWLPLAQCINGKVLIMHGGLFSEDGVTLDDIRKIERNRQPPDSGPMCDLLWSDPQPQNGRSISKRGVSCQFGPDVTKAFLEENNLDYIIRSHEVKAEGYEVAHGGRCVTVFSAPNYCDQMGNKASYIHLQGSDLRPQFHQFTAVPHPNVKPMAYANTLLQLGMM
Experimental: The structures for the manganese-containing systems (Figure S2) were taken from the Research Collaboration for Structural Bioinformatics protein database (RCSB Protein Data Bank, PDB ID: 3H63; 3H61; 3H64)[22], and all the structures were visualized using pymol 1.3 r1 edu. Manganese-related force field parameters were determined using Seminario’s method. Atomic single charge was calculated using the restrained electrostatic potential (RESP) fitting protocol. The Quantum Mechanics (QM) and Molecular Mechanics (MM) vibrational frequencies were compared to check the quality of the force field parameters. We performed three individual 50 ns MD at different seeds for each system. All MD simulations were performed with the AMBER12 package. All MD results were analyzed with the Ambertools13 package based on three individual 50 ns MD trajectories, and the data were averaged. Molecular Mechanics-Poisson-Boltzmann Surface Area (MM-PBSA)[32] calculations were performed on 1000 snapshots exacted from 40 ~ 50 ns production trajectories with a time interval of 10 ps to estimate the binding free energy. Since only the catalytic domain was used in the simulations, the starting point in our constructed structure corresponds to the 176th residue in the reference structure. […] The IC50 values of the three compounds against all HuPP5 proteins were calculated from the dose-dependent inhibition assay. […]
Cells were harvested by centrifugation (8,000 g for 10 min at 4 ℃) and were lysed by sonication in buffer A (20 mM Tris-HCl, pH=8.0, 4 mM MnCl2, 300 mM NaCl) containing 20 mM imidazole, 0.1% β-mercaptoethanol, 1.0 mg/ml lysozyme and 1 mM PMSF. […] Protein concentrations were determined using a BCA Protein Assay Kit (Pierce, Thermo Scientific, Rockford, IL, USA).
Enzymatic assays and inhibition studies. Phosphatase activity was measured using p-NPP (p-nitrophenyl phosphate) as substrate. […]

[2] = target: T2, HuPP5 R100A (Homo sapiens, UniProt P53041, R275A); assay: Inhibition of recombinant HuPP5 mutant R100A (p-NPP substrate); assay type: biochemical; conditions: for IC50: recombinant HuPP5 R100A, p-NPP, mean ± S.D., three independent experiments; for ΔΔGbind-exp, R100A: ΔΔGbind = RTln(IC50 mutant/IC50 wild-type)
T2 construct: 6xHis (N); made in house; host or cells: Escherichia coli BL21(DE3)pLysS, pET43.1b
T2 sequence (P53041 1-499 R275A): T1 sequence (P53041 1-499) with R275A
Description: (§1) A PCR-based site-directed mutagenesis approach was used to change Arg 100 to Ala (R100A), His 129 to Ala (H129A), and Arg 225 to Ala (R225A). All recombinant enzymes were soluble, expressed in E. coli and purified to homogeneity (>90% pure) (Figure S9). […] However, their inhibitory activity was suppressed against the three individually site-directed mutagenesis HuPP5: R100A, H129A, and R225A (Table S7). H129A appears to be most unfavorable to the binding of these inhibitors due to the highest IC50 values (>10 mM). […]
(§2) Site-directed mutagenesis. The sequence encoding the ORF of Human PP5 (HuPP5) was isolated from the liver cancer cell line SMMC-7721 by PCR using primers that introduced a Nde I site and 6xHis tag at the forward one, and a Xho I site at the reverse one. The PCR products were cloned into pCR2.1 (Invitrogen, Carlsbad, CA, USA) and transformed into DH5α (TaKaRa, Dalian, China) and then sequenced (AuGCT, Inc., Beijing, China). The mutants were generated using the QuikChange® site-directed mutagenesis kit (Stratagene, La Jolla, CA, USA) following the instruction manual. The mutagenic primers were designed based on the sequence of wild-type […]
(§3) The mutants were sequenced to confirm the presence of the desired mutations and the lack of undesired mutations.
(§4) Protein expression and purification. The wild-type and mutants HuPP5 were then cloned into the corresponding sites of pET43.1b (Novagen, Madison, WI, USA) and transformed into Escherichia coli BL21(DE3)pLysS (Novagen, Madison, WI, USA). Proteins were expressed in LB (also on this page, place not known: scan ning. T he Cβ -H Cβ -Cγ. energ y tantbinding mu wildtypeG G G −−ΔΔ =Δ −Δ tantbinding muG −Δ binding wildtypeG −Δ binding re spectively. bindingGΔΔ binding (Invitrogen , USA ) site -directed (Stratagene , USA ) wild -type S 5. purification . s ites (Novagen , USA )) […]
(§5) (Luria-Bertani) broth (containing 2 mM MnCl2, 100 μg/ml ampicillin and 34 μg/ml chloramphenicol) and induced with 0.1 mM IPTG (isopropyl β-thiogalactoside) for 24 h at 18 ℃.
(§6) Cells were harvested by centrifugation (8,000 g for 10 min at 4 ℃) and were lysed by sonication in buffer A (20 mM Tris-HCl, pH=8.0, 4 mM MnCl2, 300 mM NaCl) containing 20 mM imidazole, 0.1% β-mercaptoethanol, 1.0 mg/ml lysozyme and 1 mM PMSF. After centrifugation for 20 min at 20,000 g at 4 ℃, the supernatant was loaded to a buffer A pre-equilibrated Ni-NTA affinity column (Transgen, Beijing, China) to bind the 6xHis tagged protein. The reduction of non-specific interactions between the extract proteins and the matrix was achieved by washing the Ni-NTA resins with buffer B (20 mM Tris-HCl, pH=8.0, 300 mM NaCl, 1 mM EGTA, 0.1% β-mercaptoethanol, 4 mM MnCl2) containing 20 mM imidazole. Elution was then conducted using 150 mM imidazole in buffer B. The eluted HuPP5 fractions were pooled and dialyzed against buffer C (buffer B + 50% glycerol) overnight. Dialyzed samples were subjected to 12% SDS-PAGE and stained with Coomassie blue. Protein concentrations were determined using a BCA Protein Assay Kit (Pierce, Thermo Scientific, Rockford, IL, USA).
(§7) Enzymatic assays and inhibition studies. Phosphatase activity was measured using p-NPP (p-nitrophenyl phosphate) as substrate. Assays were performed in a 200 μL reaction containing 500 ng protein and assay buffer (20 mM p-NPP in 20 mM Tris (pH 7.4), 100 μM arachidonic acid, 1 mM EGTA, 0.1% β-mercaptoethanol and 0.1% ethanol). The reaction was initiated by adding the p-NPP and incubated at 35 ℃ for 10 min. Control reactions were assayed without enzyme.
(§8) Assays were terminated by addition of 200 μL of 5 N NaOH. Sample absorbance was measured at A410 using the TECANTM Infinite® 200 PRO multimode micro-plate reader after subtracting the appropriate background. Kinetic parameters were determined by using the Michaelis-Menten […]
(§9) plot analysis of data obtained under the assay conditions as mentioned above with the addition of […]

[3] = target: T3, HuPP5 H129A (Homo sapiens, UniProt P53041, H304A); assay: Inhibition of recombinant HuPP5 mutant H129A (p-NPP substrate); assay type: biochemical; conditions: for IC50: recombinant HuPP5 H129A, p-NPP; for ΔΔGbind-exp, H129A: ΔΔGbind = RTln(IC50 mutant/IC50 wild-type)
T3 construct: 6xHis (N); made in house; host or cells: Escherichia coli BL21(DE3)pLysS, pET43.1b
T3 sequence (P53041 1-499 H304A): T1 sequence (P53041 1-499) with H304A
Description: as §1, §2, §3, §4, §5, §6, §7, §8, §9

[4] = target: T4, HuPP5 R225A (Homo sapiens, UniProt P53041, R400A); assay: Inhibition of recombinant HuPP5 mutant R225A (p-NPP substrate); assay type: biochemical; conditions: for IC50: recombinant HuPP5 R225A, p-NPP, mean ± S.D., three independent experiments; for ΔΔGbind-exp, R225A: ΔΔGbind = RTln(IC50 mutant/IC50 wild-type)
T4 construct: 6xHis (N); made in house; host or cells: Escherichia coli BL21(DE3)pLysS, pET43.1b
T4 sequence (P53041 1-499 R400A): T1 sequence (P53041 1-499) with R400A
Description: as §1, §2, §3, §4, §5, §6, §7, §8, §9

[5] = system: PP5; set-up: method as in PMID 17200551, PMID 19025735, PMID 20331621; conditions: read-out: relative IC50 value against PP5; cited from earlier work

SMILES | IC50 [1] [µM] | IC50 [2] [µM] | ΔΔGbind-exp, R100A [2] [kcal/mol] | IC50 [3] [µM] | ΔΔGbind-exp, H129A [3] [kcal/mol] | IC50 [4] [µM] | ΔΔGbind-exp, R225A [4] [kcal/mol] | IC50 [5] [µM] | IC50 on R225A higher than that of cantharidin ([4]; ratio of IC50 values on HuPP5 R225A, versus cantharidin) [fold] | IC50 on R225A higher than that of norcantharidin ([4]; ratio of IC50 values on HuPP5 R225A, versus norcantharidin) [fold]
C[C@@]12C(=O)OC(=O)[C@]1(C)[C@H]1CC[C@@H]2O1 [Cantharidin, cantharidin] | 0.82 | 4.05 ± 0.34 | 0.97 | > 10000 | >5.74 | 21.9 ± 1.12 | 2.03 | 0.6 |  | 
O=C(O)[C@@H]1[C@H](C(=O)O)[C@H]2CC[C@@H]1O2 [Endothall, endothall] | 3.64 | 18.4 ± 0.39 | 0.99 | > 10000 | >4.83 | 1060 ± 63.7 | 3.46 |  | 48.54 | 6.47
O=C1OC(=O)[C@H]2[C@@H]1[C@@H]1CC[C@H]2O1 [Norcantharidin, norcantharidin] | 4.18 | 17.8 ± 1.44 | 0.88 | > 10000 | >4.75 | 164 ± 9.84 | 2.24 |  |  | 
